Columns and labels:
[1] = tested on: golden hamster with non-alcoholic fatty liver disease induced by high-fat diet; assay: Body weight and liver coefficient of golden hamster with non-alcoholic fatty liver disease induced by high-fat diet; type: in vivo, Syrian golden hamster; conditions: n = 10, mean ± standard error
Protocol: The animals were fasted overnight before the end of the experiment, anesthetized by intraperitoneal injection of 3% pentobarbital sodium, the abdominal cavity was exposed, and the liver was rapidly separated after blood was taken from the aorta abdominalis. One liver lobe was preserved, and two pieces of 1×1 cm^3 pieces were cut at a fixed site, one piece was embedded in OCT, quickly frozen in liquid nitrogen, and stored in liquid nitrogen or at −80° C.; and the other piece was placed in a 4% paraformaldehyde stationary liquid and stored at 4° C.

[2] = tested on: golden hamster with non-alcoholic fatty liver disease induced by high-fat diet; assay: Serum lipid indexes of golden hamster with non-alcoholic fatty liver disease induced by high-fat diet; type: in vivo, Syrian golden hamster; conditions: n = 10; for LDL-C: calculated LDL=TC-HDL-0.2TG
Protocol: (§1) After 5 days of adaptive feeding, animals were randomly divided into a normal control group (n=15), a high-fat diet group (n=15), an IMMH007 low-dose group (25 mg/kg, n=15), an IMMH007 medium-dose group (50 mg/kg, n=15), and an IMMH007 high-dose group (100 mg/kg, n=15), and given intragastric administration twice daily.
(§2) The animals were fasted for 12 hours, and 0.5 ml blood was collected from the angular vein and allowed to stand for 60 min, and centrifuged at 6000 g for 10 min, and the supernatant was aspirated as much as possible, and then centrifuged at 6000 g for 10 min. The absorbance values were measured according to the instructions of the total cholesterol (TC), triglycerides (TG), aspartate aminotransferase (AST), and alanine aminotransferase (ALT) kits, and the concentration of each index was calculated. 50 ul serum was mixed with 50 ul PEG6000 in a ratio of 1:1, vortexed uniformly, allowed to stand for 10 min, and centrifuged at 1900 g for 20 min at room temperature, and the supernatant was carefully pipetted, stored at 4° C., and measured for high density lipoprotein cholesterol (HDL-C) according to the instructions of the total cholesterol (TC) kit. The plasma low density lipoprotein (LDL) level was calculated by subtracting HDL-C and 0.2-fold TG levels from plasma total cholesterol TC, ie, LDL=TC-HLD-0.2TG.

[3] = tested on: golden hamster with non-alcoholic fatty liver disease induced by high-fat diet; assay: Lipid content in liver tissue of golden hamster with non-alcoholic fatty liver disease induced by high-fat diet; type: in vivo, Syrian golden hamster; conditions: n = 10
Protocol: 100 mg liver tissue was accurately weighed, and added with a triglyceride detection lysate, the tissue was homogenized by a homogenizer in an ice bath to no significant tissue mass, placed on ice for 5 min, transferred to a 1.5 ml centrifuge tube, and centrifuged at 14000 g for 10 min at 4° C., the supernatant was transferred and a portion of the supernatant was taken for protein quantification, and detected for its lipid content according to the instructions of the TC and TG detection kits.

[4] = tested on: golden hamster with non-alcoholic fatty liver disease induced by high-fat diet; conditions: in vivo
Protocol: as §1, §2

[5] = tested on: golden hamster with non-alcoholic fatty liver disease induced by high-fat diet; assay: Liver function (serum ALT, AST) of golden hamster with non-alcoholic fatty liver disease induced by high-fat diet; conditions: n = 10; for GPT: serum ALT; for GOT: serum AST
Protocol: as §1, §2

## CC(=O)OCC1OC(n2cnc3c(Nc4cccc(O)c4)ncnc32)C(OC(C)=O)C1OC(C)=O (stereo not shown) [IMM-H007, triacetyl-3-hydroxyphenyladenosine]
[1]; IMM-H007 50 mg/kg
  Body Weight: 170 ± 11
  Liver Organ Coefficient: 0.0313 ± 0.002
[1]; IMM-H007 100 mg/kg
  Liver Organ Coefficient: 0.0291 ± 0.003
[1]; IMM-H007 100 mg/kg, in g (unit assumed)
  Body Weight: 177 ± 9
[1]; IMM-H007 200 mg/kg
  Body Weight: 166 ± 12
  Liver Organ Coefficient: 0.0298 ± 0.002
[2]; IMM-H007 50 mg/kg
  FFA: 2324.6 ± 783.4 μEq/L
  HDL-C: 2.8 ± 0.4 mmol/L
  TC: 7.9 ± 1.0 mmol/L
  TG: 4.7 ± 1.9 mmol/L
  LDL-C: 4.1 ± 1.2 mmol/L
[2]; IMM-H007 100 mg/kg
  FFA: 1889.5 ± 386.5 μEq/L
  HDL-C: 2.8 ± 0.2 mmol/L
  TC: 7.0 ± 1.0 mmol/L
  TG: 4.3 ± 1.4 mmol/L
  LDL-C: 4.0 ± 0.7 mmol/L
[2]; IMM-H007 200 mg/kg
  FFA: 1497.6 ± 326.2 μEq/L
  HDL-C: 2.6 ± 0.5 mmol/L
  TC: 6.7 ± 1.0 mmol/L
  TG: 2.7 ± 0.8 mmol/L
  LDL-C: 3.3 ± 0.5 mmol/L
[3]; IMM-H007 50 mg/kg
  TC: 2.8 ± 0.8 µmol/g protein
  TG: 3.6 ± 0.1 µmol/g protein
[3]; IMM-H007 100 mg/kg
  TC: 2.4 ± 0.4 µmol/g protein
  TG: 3.3 ± 0.1 µmol/g protein
[3]; IMM-H007 200 mg/kg
  TC: 1.8 ± 0.8 µmol/g protein
  TG: 2.8 ± 0.1 µmol/g protein
[4]
  Effect on the liver as concluded from serum ALT and AST: good hepatic protective effect
[5]; IMM-H007 50 mg/kg
  GPT: 21.1 ± 5.2 U/L
  GOT: 9.4 ± 1.7 U/L
[5]; IMM-H007 100 mg/kg
  GPT: 20.9 ± 8.0 U/L
  GOT: 8.4 ± 2.3 U/L
[5]; IMM-H007 200 mg/kg
  GPT: 12.4 ± 3.1 U/L
  GOT: 7.2 ± 2.1 U/L

— patent publication US11058703B2, “Application of triacetyl-3-hydroxyphenyladenosine in preparation of pharmaceutical drug for preventing or treating non-alcoholic fatty liver disease” (priority 2015, dated 2021)
